Source: patent US8410151B2, “Aminomethyl benzene derivatives” (Actelion Pharmaceuticals Ltd, priority 2009, dated 2013)
pEC50: −log10 of the molar value.

Assays:
[1] = target: recombinant human S1P1 receptor (Homo sapiens, UniProt P21453); experiment: GTPγS assay to determine EC50 values; format: biochemical; conditions: 35S-GTPγS binding
Description: GTPγS binding assays are performed in 96 well microtiter plates (Nunc, 442587) in a final volume of 200 μl, using membrane preparations of CHO cells expressing recombinant human S1P1 receptor. Assay conditions are 20 mM Hepes (Fluka, 54461), 100 mM NaCl (Fluka, 71378), 5 mM MgCl2 (Fluka, 63064), 0.1% BSA (Calbiochem, 126609), 1 μM GDP (Sigma, G-7127), 2.5% DMSO (Fluka, 41644), 50 pM ^355-GTPγS (Amersham Biosciences, SJ1320). The pH is 7.4. Test compounds are dissolved and diluted in 100% DMSO and pre-incubated at room temperature for 30 min in 150 μl of the above assay buffer, in the absence of ^355-GTPγS. After addition of 50 μl of ^355-GTPγS, the assay is incubated for 1 h at rt. The assay is terminated by transfer of the reaction mixture to a Multiscreen plate (Millipore, MAHFC1H60) using a cell harvester from Packard Biosciences, and the plates are washed with ice-cold 10 mM Na2HPO4/NaH2PO4 (70%/30%), dried, sealed at the bottom and, after addition of 25 μl MicroScint20 (Packard Biosciences, order #6013621), sealed on the top. Membrane-bound ^35S-GTPγS is measured with a TopCount from Packard Biosciences.
EC50 is the concentration of agonist inducing 50% of the maximal specific ^35S-GTPγS binding. Specific binding is determined by subtracting non-specific binding from maximal binding. Maximal binding is the amount of cpm bound to the Multiscreen plate in the presence of 10 μM of S1P. Non-specific binding is the amount of binding in the absence of an agonist in the assay.

circulating lymphocytes = experiment: Assessment of in vivo efficacy: circulating lymphocytes after oral administration; design: species or system normotensive male Wistar rats; conditions: 3 h after oral administration of 10 mg/kg, male Wistar rats, compared to vehicle-treated group
Description: The efficacy of the compounds of formula (I) is assessed by measuring the circulating lymphocytes after oral administration of 3 to 30 mg/kg of a compound of formula (I) to normotensive male Wistar rats. The animals are housed in climate-controlled conditions with a 12 h-light/dark cycle, and have free access to normal rat chow and drinking water.
Blood is collected before and 3, 6 and 24 h after drug administration. Full blood is subjected to hematology using Advia Hematology system (Bayer Diagnostics, Zurich, Switzerland).
All data are presented as mean±SEM. Statistical analyses are performed by analysis of variance (ANOVA) using Statistica (StatSoft) and the Student-Newman-Keuls procedure for multiple comparisons. The null hypothesis is rejected when p<0.05.

[2] = membrane preparations of CHO cells expressing recombinant human S1P1 receptor

Chain of recombinant human S1P1 receptor (P21453 whole entry): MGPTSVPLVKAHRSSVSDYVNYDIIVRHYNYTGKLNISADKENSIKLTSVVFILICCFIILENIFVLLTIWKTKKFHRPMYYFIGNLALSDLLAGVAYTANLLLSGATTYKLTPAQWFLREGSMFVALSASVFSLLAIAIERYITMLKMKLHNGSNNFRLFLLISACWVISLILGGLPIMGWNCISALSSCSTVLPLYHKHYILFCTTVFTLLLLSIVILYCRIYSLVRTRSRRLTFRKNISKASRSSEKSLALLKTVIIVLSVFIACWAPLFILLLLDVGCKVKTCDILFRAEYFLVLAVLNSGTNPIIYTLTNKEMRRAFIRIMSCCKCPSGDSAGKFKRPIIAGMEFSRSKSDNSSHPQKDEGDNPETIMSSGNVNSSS

| Compound | pEC50 [1, 2] | also measured |
| --- | --- | --- |
| CCc1cc(-c2noc(-c3cc(CN(C)CC(C)C)cc(C(C)C)c3)n2)cc(C)c1OC[C@@H](O)CNC(=O)CO [Example 73, N—{(S)-3-[2-ethyl-4-(5-{3-[(isobutyl-methyl-amino)-methyl]-5-isopropyl-phenyl}-[1,2,4]oxadiazol-3-yl)-6-methyl-phenoxy]-2-hydroxy-propyl}-2-hydroxy-acetamide] | 8.70 |  |
| CCc1cc(-c2nc(-c3cc(C)c(OC[C@@H](O)CNC(=O)CO)c(CC)c3)no2)ccc1CN(C)C [Example 99, N—((S)-3-{4-[5-(4-dimethylaminomethyl-3-ethyl-phenyl)-[1,2,4]oxadiazol-3-yl]-2-ethyl-6-methyl-phenoxy}-2-hydroxy-propyl)-2-hydroxy-acetamide] |  | Lymphocyte counts (circulating lymphocytes): −61.0% |
| CCCc1cc(CNCC(C)C)cc(-c2nc(-c3cc(C)c(OC[C@@H](O)CNC(=O)CO)c(CC)c3)no2)c1 [Example 58, N—[(S)-3-(2-ethyl-4-{5-[3-(isobutylamino-methyl)-5-propyl-phenyl]-[1,2,4]oxadiazol-3-yl}-6-methyl-phenoxy)-2-hydroxy-propyl]-2-hydroxy-acetamide] | 8.08 |  |
| CCCCN(CC)Cc1cc(C)cc(-c2nc(-c3cc(C)c(OC[C@@H](O)CNC(=O)CO)c(CC)c3)no2)c1 [Example 21, N—{(S)-3-[4-(5-{3-[(butyl-ethyl-amino)-methyl]-5-methyl-phenyl}-[1,2,4]oxadiazol-3-yl)-2-ethyl-6-methyl-phenoxy]-2-hydroxy-propyl}-2-hydroxy-acetamide] | 8.25 |  |
| CCc1cc(-c2noc(-c3cc(C)cc(CN(C)CC(C)C)c3)n2)cc(C)c1OC[C@@H](O)CNC(=O)CO [Example 19, N—{(S)-3-[2-ethyl-4-(5-{3-[(isobutyl-methyl-amino)-methyl]-5-methyl-phenyl}-[1,2,4]oxadiazol-3-yl)-6-methyl-phenoxy]-2-hydroxy-propyl}-2-hydroxy-acetamide] | 8.66 |  |
| CCCCN(C)Cc1ccc(-c2nc(-c3cc(C)c(OC[C@@H](O)CNC(=O)CO)c(CC)c3)no2)cc1C [Example 42, N—{(S)-3-[4-(5-{4-[(butyl-methyl-amino)-methyl]-3-methyl-phenyl}-[1,2,4]oxadiazol-3-yl)-2-ethyl-6-methyl-phenoxy]-2-hydroxy-propyl}-2-hydroxy-acetamide] | 8.24 |  |
| CCc1cc(CN(C)C)cc(-c2nc(-c3cc(C)c(OC[C@@H](O)CNC(=O)CO)c(CC)c3)no2)c1 [Example 49, N—((S)-3-{4-[5-(3-dimethylaminomethyl-5-ethyl-phenyl)-[1,2,4]oxadiazol-3-yl]-2-ethyl-6-methyl-phenoxy}-2-hydroxy-propyl)-2-hydroxy-acetamide] | 8.43 |  |
| CCc1cc(-c2noc(-c3cc(CN4CCCC4)cc(C(C)C)c3)n2)cc(C)c1OC[C@@H](O)CNC(=O)CO [Example 75, N—((S)-3-{2-ethyl-4-[5-(3-isopropyl-5-pyrrolidin-1-ylmethyl-phenyl)-[1,2,4]oxadiazol-3-yl]-6-methyl-phenoxy}-2-hydroxy-propyl)-2-hydroxy-acetamide] | 8.14 |  |
| N-(3-{4-[5-(4-dimethylaminomethyl-3-methyl-phenyl)-[1,2,4]oxadiazol-3-yl]-2,6-dimethyl-phenoxy}-2-hydroxy-propyl)-2-hydroxy-acetamide [Example 127] | 8.07 |  |
| CCCCN(C)Cc1cc(-c2nc(-c3cc(C)c(OC[C@@H](O)CNC(=O)CO)c(CC)c3)no2)cc(C(C)C)c1 [Example 72, N—{(S)-3-[4-(5-{3-[(butyl-methyl-amino)-methyl]-5-isopropyl-phenyl}-[1,2,4]oxadiazol-3-yl)-2-ethyl-6-methyl-phenoxy]-2-hydroxy-propyl}-2-hydroxy-acetamide] | 8.64 |  |
| CCc1cc(-c2nc(-c3cc(C)c(OC[C@@H](O)CNC(=O)CO)c(CC)c3)no2)ccc1CN(C)CC [Example 100, N—{(S)-3-[2-ethyl-4-(5-{3-ethyl-4-[(ethyl-methyl-amino)-methyl]-phenyl}-[1,2,4]oxadiazol-3-yl)-6-methyl-phenoxy]-2-hydroxy-propyl}-2-hydroxy-acetamide] | 8.80 |  |
| CCCc1cc(CN(C)CCC)cc(-c2nc(-c3cc(C)c(OC[C@@H](O)CNC(=O)CO)c(CC)c3)no2)c1 [Example 61, N—{(S)-3-[2-ethyl-6-methyl-4-(5-{3-[(methyl-propyl-amino)-methyl]-5-propyl-phenyl}-[1,2,4]oxadiazol-3-yl)-phenoxy]-2-hydroxy-propyl}-2-hydroxy-acetamide] | 8.44 |  |
| CCCCN(C)Cc1cc(CCC)cc(-c2nc(-c3cc(C)c(OC[C@@H](O)CNC(=O)CO)c(CC)c3)no2)c1 [Example 62, N—{(S)-3-[4-(5-{3-[(butyl-methyl-amino)-methyl]-5-propyl-phenyl}-[1,2,4]oxadiazol-3-yl)-2-ethyl-6-methyl-phenoxy]-2-hydroxy-propyl}-2-hydroxy-acetamide] | 8.51 |  |
| CCN(C)Cc1cc(C)cc(-c2nc(-c3cc(C)c(OC[C@@H](O)CNC(=O)CO)c(Cl)c3)no2)c1 [Example 148, N—{(S)-3-[2-chloro-4-(5-{3-[(ethyl-methyl-amino)-methyl]-5-methyl-phenyl}-[1,2,4]oxadiazol-3-yl)-6-methyl-phenoxy]-2-hydroxy-propyl}-2-hydroxy-acetamide] | 8.89 |  |
| CCN(C)Cc1cc(C)cc(-c2nc(-c3cc(C)c(OC[C@@H](O)CNC(=O)CO)c(C)c3)no2)c1 [Example 147, N—{(S)-3-[4-(5-{3-[(ethyl-methyl-amino)-methyl]-5-methyl-phenyl}-[1,2,4]oxadiazol-3-yl)-2,6-dimethyl-phenoxy]-2-hydroxy-propyl}-2-hydroxy-acetamide] | 8.70 |  |
| CCc1ccc(-c2nc(-c3cc(C)c(OC[C@@H](O)CNC(=O)CO)c(CC)c3)no2)cc1CN(C)C [Example 89] | 7.66 |  |
| CCCN(C)Cc1cc(-c2nc(-c3cc(C)c(OC[C@@H](O)CNC(=O)CO)c(CC)c3)no2)cc(C(C)C)c1 [Example 71, N—{(S)-3-[2-ethyl-4-(5-{3-isopropyl-5-[(methyl-propyl-amino)-methyl]-phenyl}-[1,2,4]oxadiazol-3-yl)-6-methyl-phenoxy]-2-hydroxy-propyl}-2-hydroxy-acetamide] | 8.68 |  |
| CCCCN(C)Cc1cc(CC)cc(-c2nc(-c3cc(C)c(OC[C@@H](O)CNC(=O)CO)c(CC)c3)no2)c1 [Example 52, N—{(S)-3-[4-(5-{3-[(butyl-methyl-amino)-methyl]-5-ethyl-phenyl}-[1,2,4]oxadiazol-3-yl)-2-ethyl-6-methyl-phenoxy]-2-hydroxy-propyl}-2-hydroxy-acetamide] | 8.70 |  |
| CNCc1cccc(-c2nc(-c3cc(C)c(OCC(O)CNC(=O)CO)c(C)c3)no2)c1 (racemic) [Example 1] |  | pEC50 ([1]; CHO membranes, human S1P1): < 5.00 |
| CCN(C)Cc1cc(C)cc(-c2nc(-c3cc(C)c(OC[C@@H](O)CO)c(Cl)c3)no2)c1 [Example 144, (S)-3-[2-chloro-4-(5-{3-[(ethyl-methyl-amino)-methyl]-5-methyl-phenyl}-[1,2,4]oxadiazol-3-yl)-6-methyl-phenoxy]-propane-1,2-diol] | 8.70 |  |
| CCc1cc(CN(C)CC)cc(-c2nc(-c3cc(C)c(OC[C@@H](O)CNC(=O)CO)c(CC)c3)no2)c1 [Example 50, N—{(S)-3-[2-ethyl-4-(5-{3-ethyl-5-[(ethyl-methyl-amino)-methyl]-phenyl}-[1,2,4]oxadiazol-3-yl)-6-methyl-phenoxy]-2-hydroxy-propyl}-2-hydroxy-acetamide] | 8.28 |  |
| CCCN(C)Cc1cc(CC)cc(-c2nc(-c3cc(C)c(OC[C@@H](O)CNC(=O)CO)c(CC)c3)no2)c1 [Example 51, N—{(S)-3-[2-ethyl-4-(5-{3-ethyl-5-[(methyl-propyl-amino)-methyl]-phenyl}-[1,2,4]oxadiazol-3-yl)-6-methyl-phenoxy]-2-hydroxy-propyl}-2-hydroxy-acetamide] | 8.62 |  |
| CCc1cc(-c2nc(-c3cc(C)c(OC[C@@H](O)CNC(=O)CO)c(CC)c3)no2)ccc1CN1CCCC1 [Example 105, N—((S)-3-{2-ethyl-4-[5-(3-ethyl-4-pyrrolidin-1-ylmethyl-phenyl)-[1,2,4]oxadiazol-3-yl]-6-methyl-phenoxy}-2-hydroxy-propyl)-2-hydroxy-acetamide] | 8.10 |  |
